{"source": "patent US9670259B2", "about": "“Method of inhibiting angiogenesis using inhibitors of G-protein-coupled receptor kinase interacting protein-1 (GIT1)” (University of Rochester, priority 2013, dated 2017)", "format_in_all_cases": "cell-based, human", "key": {"Dll4": {"tested_on": "Dll4", "experiment": "Dll4 mRNA (qRT-PCR) and protein (western blot) after GIT1 depletion with siRNA in HUVECs", "conditions": "siRNA 48 h, compared to control siRNA", "description": "(§1) Human umbilical vein endothelial cells (HUVECs) were isolated and grown in Medium 200 with low serum growth supplement (Cascade Biologics, Inc., Portland, Oreg.) as described previously (Carmeliet et al., Nature 436:193 (2005), which is hereby incorporated by reference in its entirety). GIT1 siRNA ([…]) (SEQ ID NO: 21) and control non-silencing siRNA([…]) (SEQ ID NO: 22) were designed and synthesized (Ambion) and Dll4 siRNA was purchased (Santa Cruz). The siRNA were transfected at 100 nM for 48 h as previously described by our laboratory (Yin et al., Mol. Cell Biol., 24:875 (2004), which is hereby incorporated by reference in its entirety). […]\n(§2) For immunoblotting, cells were lysed in RIPA buffer (150 mM NaCl, 1% Nonidet P-40, […], 0.1% SDS, 50 mM Tris-HCl, pH 8.0). Protein concentrations in the lysates were determined. […] After incubating with fluorescence-conjugated secondary antibodies, immunoreactive proteins were visualized by an Odyssey infrared imaging system (LI-COR Biotechnology, Nebraska). […]\n(§3) Total RNA from retinas and lungs of GIT1 WT and KO mice or HUVECs was obtained using TRIzol reagent (Invitrogen) according to the manufacturer's protocol. […] Target genes mRNA expression and mitochondrial DNA content were determined by qRT-PCR (Applied Biosystems). […]"}, "Hey1": {"tested_on": "Hey1", "experiment": "Hey1 mRNA (qRT-PCR) and protein (western blot) after GIT1 depletion with siRNA in HUVECs", "conditions": "compared to control siRNA", "description": "as §1, §2, §3"}, "Notch1": {"tested_on": "Notch1", "experiment": "Notch1 expression and cleavage (N1-ICD) after GIT1 depletion with siRNA in HUVECs", "conditions": "siRNA treated", "description": "Human umbilical vein endothelial cells (HUVECs) were isolated and grown in Medium 200 with low serum growth supplement (Cascade Biologics, Inc., Portland, Oreg.) as described previously (Carmeliet et al., Nature 436:193 (2005), which is hereby incorporated by reference in its entirety). GIT1 siRNA ([…]) (SEQ ID NO: 21) and control non-silencing siRNA([…]) (SEQ ID NO: 22) were designed and synthesized (Ambion) and Dll4 siRNA was purchased (Santa Cruz). The siRNA were transfected at 100 nM for 48 h as previously described by our laboratory (Yin et al., Mol. Cell Biol., 24:875 (2004), which is hereby incorporated by reference in its entirety). HEK293 cells were cultured in Dulbecco's modified Eagle's medium supplemented with 10% fetal bovine serum (FBS), penicillin, and streptomycin at 37° C. in 5% CO2. HEK293T cells were transfected by Lipofectamine/plus (Invitrogen).\nFor immunoblotting, cells were lysed in RIPA buffer (150 mM NaCl, 1% Nonidet P-40, […], 0.1% SDS, 50 mM Tris-HCl, pH 8.0). Protein concentrations in the lysates were determined. The protein samples were separated by SDS-PAGE, transferred to nitrocellulose membranes, and incubated with appropriate primary antibodies. After incubating with fluorescence-conjugated secondary antibodies, immunoreactive proteins were visualized by an Odyssey infrared imaging system (LI-COR Biotechnology, Nebraska). […]"}, "PLCγ": {"tested_on": "PLCγ", "experiment": "VEGF induced PLCγ activation in HUVEC infected with SHD-Flag lentivirus", "conditions": "lentivirus overexpression, VEGF 10 ng/mL", "description": "(§4) In an effort to identify the potential GIT1 inhibitor peptides, a flag-tagged SHD domain of GIT1 (SHD-Flag) was cloned into a lentivirus vector.\n(§5) HUVECs were seeded on 6 well plate at 80% confluence. The next day, cells were infected with control and SHD-Flag containing Lentivirus with Polybrene. After 1 day, infection media was changed with fresh complete M200 media (containing 5% FBS+1% Penicillin-Streptomycin and 2% LSGS). After 48 hours, cells were serum starved with serum free M200 media for 1 hour and stimulated with VEGF (10 ng/mL) for different time points ranging from 0 to 30 minutes. Next cells were lysed and used for western blot analysis to measure PLCγ and ERK1/2 activation. […] No effect of SHD overexpression on VEGF induced ERK1/2 activation was observed. Flag tagged SHD expression in HUVECs were confirmed by detecting Flag in the lysate"}, "ERK1/2": {"tested_on": "ERK1/2", "experiment": "VEGF induced ERK1/2 activation in HUVEC infected with SHD-Flag lentivirus", "conditions": "lentivirus overexpression, VEGF 10 ng/mL", "description": "as §4, §5"}, "HUVEC": {"tested_on": "HUVEC", "experiment": "HUVEC tube formation on matrigel after SHD overexpression", "conditions": "HUVECs with VEGF on growth factor reduced matrigel, 16 hours, compared to control", "description": "In addition to PLCγ signaling, the effect of SHD overexpression on HUVEC tube formation in vitro was also assessed. Endothelial cells reorganize themselves in a 3D matrix like matrigel and form tubes which is an index of in vitro angiogenesis. After 48 hours, cells were cultured at a constant number (10^4 cells/well) with VEGF on growth factor reduced matrigel (30 uL) coated 96 well plate and incubated for 16 hours."}}, "data": [{"molecule": "GIT1 siRNA: siRNA AAGCTGCCAAGAAGAAGCTAC (SEQ ID NO: 21), synthesized (Ambion) (listed as DNA, chemistry not given here)", "values": [{"measurement": "increase of Dll4 mRNA expression", "setting": "Dll4", "result": "3.2±0.6", "unit": "fold"}, {"measurement": "increase of Dll4 protein expression", "setting": "Dll4", "result": "6.3±0.3", "unit": "fold"}, {"measurement": "increase of Hey1 mRNA expression", "setting": "Hey1", "result": "5.2±0.57", "unit": "fold"}, {"measurement": "increase of Hey1 protein expression", "setting": "Hey1", "result": "3.0±0.3", "unit": "fold"}, {"measurement": "Notch1 expression", "setting": "Notch1", "result": "no change"}, {"measurement": "enhancement of expression of N1-ICD", "setting": "Notch1; normalized to total Notch1", "result": "1.7±0.4", "unit": "fold"}]}, {"molecule": "SHD-Flag: flag-tagged SHD domain of GIT1 (residues 250-420 of SEQ ID NO: 1) cloned into a lentivirus vector (protein, listed as Homo sapiens, Flag tag; lentivirus vector) QMADSLDLSELAKAAKKKLQALSNRLFEELAMDVYDEVDRRENDAVWLATQNHSTLVTERSAVPFLPVNPEYSATRNQGRQKLARFNAREFATLIIDILSEAKRRQQGKSLSSPTDNLELSLRSQSDLDDQHDYDSVASDEDTDQEPLRSTGATRSNRARSMDSSDLSDGA", "values": [{"measurement": "VEGF induced PLCγ activation", "setting": "PLCγ", "result": "blocked VEGF induced PLCγ activation"}, {"measurement": "VEGF induced ERK1/2 activation", "setting": "ERK1/2", "result": "No effect"}, {"measurement": "formation of tube-like structures", "setting": "HUVEC", "result": "inhibited the formation of tube-like structures"}]}]}
